In series [1] the test system is Fibroblastes de lignée MRC5.
Series [2] concerns kératinocytes de lignée NCTC.
Series [3] has as its system fibroblastes de lignée humaine. The experiment in a line: Production of extracellular matrix (MEC) proteins by fibroblasts, immunofluorescence / confocal microscopy. As to conditions: tripeptide-1 à 10^-7M vs culture without peptide.
Excerpt: Exemple 1 Etude du tripeptide-1® sur la production de protéines de la MEC par les fibroblastes par immunofluorescence.
• ▪ Matériel : fibroblastes de lignée humaine. • ▪ Protocole : les fibroblastes sont mis en culture en présence ou en absence du tripeptide-1® à 10^-7M. • ▪ Etude microscopique par microscopie confocale.

Where a SMILES comes first, the peptide text is derived from it.

Two compounds from patent EP2165698B1, “Cosmetic composition designed to protect damaged skin” (Universkin, priority 2008, dated 2016) can be followed below.

Turning to `CC/C=C\C/C=C\C/C=C\CCCCCCCC(=O)O` [acide alpha-linolénique], in series [1], the “acide alpha-linolénique dans le surnageant” value is “plus faible quantité que la quantité de départ” and the “acides EPA et DHA dans le milieu surnageant” value is listed as “Apparition des acides EPA et DHA”. In series [2], the “acide EPA dans les cellules de kératinocytes” value is recorded as “apparition de l'acide EPA”, the “acide alpha-linolénique dans le surnageant” value is given as “aucune trace”, the “acide alpha-linolénique dans les cellules de kératinocytes” value is “quantités importantes” and the “acides EPA et DHA dans le surnageant” value is “Apparition des acides EPA et DHA”.

As to `NCCCC[C@H](NC(=O)[C@H](Cc1c[nH]cn1)NC(=O)CN)C(=O)O` [tripeptide-1, H-Gly-His-Lys-OH] (H-Gly-His-Lys-OH), in series [3], the “AUGMENTATION % - Collagène de type I” value is reported as “+ 305%”, the “AUGMENTATION % - Collagène de type II” value is “+ 105%”, the “AUGMENTATION % - Elastine” value is “+ 15%” and the “AUGMENTATION % - Fibronectine” value is “+ 155%”. The “AUGMENTATION % - Laminine” value in series [3] is listed as “+ 85%”.
